Measured values: ChEMBL document CHEMBL1268866, “Factor Xa inhibitors: next-generation antithrombotic agents” (J Med Chem, 2010)
Values belong to the compound of their own block, whether it stands above or below them.

How the values were obtained:
[1] = Oral bioavailability in rat; format: ADME, organism-based; conditions: in vivo
in vivo [2] = conditions: dog
in vivo [3] = conditions: dog; remark: listed apart in the source
in vivo [4] = conditions: dog, po
in vivo [5] = conditions: dog; remark: listed apart in the source
[6] = Half life in rat; format: ADME, organism-based; conditions: in vivo
Canis familiaris = organism: Canis familiaris; experiment: Plasma concentration in dog; format: ADME, organism-based, Canis lupus familiaris; conditions: in vivo
[7] = Clearance in monkey; format: ADME, organism-based, Macaca mulatta; conditions: rhesus monkey, in vivo
[8] = Oral bioavailability in monkey; conditions: in vivo
[9] = Volume of distribution at steady state in rat; format: ADME, organism-based; conditions: in vivo, read-out: Vdss
[10] = (§1) Clearance in rat; format: ADME, organism-based; conditions: in vivo
[11] = Half life in monkey; format: ADME, organism-based, Macaca mulatta; conditions: rhesus monkey, in vivo
[12] = Volume of distribution at steady state in monkey; format: ADME, organism-based, Macaca mulatta; conditions: rhesus monkey, in vivo; read-out: Vdss
[13] = Drug excretion in human feces; format: ADME, tissue-based; conditions: faeces, read-out: Activity
[14] = Oral bioavailability in chimpanzee; format: ADME, organism-based, Pan troglodytes; conditions: in vivo
[15] = Half life in po dosed human; format: ADME, organism-based; conditions: in vivo
[16] = Drug excretion in human urine; format: ADME, tissue-based; conditions: read-out: Activity
Rattus norvegicus = organism: Rattus norvegicus; experiment: as §1; format: ADME, organism-based; conditions: in vivo
[17] = Volume of distribution in chimpanzee; format: ADME, organism-based, Pan troglodytes; conditions: in vivo
[18] = Clearance in human; format: ADME, organism-based; conditions: in vivo
[19] = Half life in human; format: ADME, organism-based; conditions: in vivo
[20] = Drug excretion in rat urine; format: ADME; conditions: read-out: Activity
[21] = Drug excretion in dog urine; format: ADME, Canis lupus familiaris; conditions: read-out: Activity
[22] = Drug excretion in rat feces; format: ADME, tissue-based; conditions: faeces, read-out: Activity
[23] = Tmax in po dosed human; format: ADME, organism-based; conditions: in vivo
[24] = Drug excretion in dog feces; format: ADME, tissue-based, Canis lupus familiaris; conditions: faeces, read-out: Activity

bioavailability [1]: 15%
Structure (SMILES): CCCCOC(=O)COc1cc(-c2ccccc2S(C)(=O)=O)ccc1CCNS(=O)(=O)c1cc(C(=N)NO)ccc1O

bioavailability [1]: 28%
Structure (SMILES): CO[C@@H]1C[C@H](C(=O)Nc2ccc(-c3ccccc3S(C)(=O)=O)cc2F)N(C(=O)Nc2ccc(Cl)cc2)C1

bioavailability [1]: 17%
Structure (SMILES): CS(=O)(=O)c1ccccc1-c1ccc(NC(=O)[C@H]2C[C@@H](O)CN2C(=O)Nc2ccc(Cl)cc2)c(F)c1

Vd (in vivo [2]): 4.5 L/kg
half-life (in vivo [3]): 1.6 h
bioavailability (in vivo [4]): 16%
clearance (in vivo [5]): 41.7 mL/min/kg
Structure (SMILES): CN(C)Cc1nccn1-c1ccc(NC(=O)c2cc(C(F)(F)F)nn2-c2ccc3onc(N)c3c2)cc1

bioavailability [1]: 100%
Structure (SMILES): CN(C)Cc1ccccc1-c1ccc(C(=O)Nc2ccc(Cl)cc2C(=O)Nc2ccc(Cl)cn2)cc1

bioavailability [1]: 27%
Structure (SMILES): CS(=O)(=O)c1cc(F)ccc1N1CCN(C(=O)[C@H](NC(=O)c2ccc3ccnc(N)c3c2)c2ccccc2)CC1

bioavailability (in vivo [4]): 100%
Structure (SMILES): NCc1ccccc1-n1nc(C(F)(F)F)cc1C(=O)Nc1ccc(-c2ccccc2S(N)(=O)=O)cc1F

bioavailability [1]: 35%
half-life [6]: 7.2 h
Structure (SMILES): Cc1cc(C(=O)Nc2ccc(-n3ccnc3CN(C)C)cc2F)n(-c2ccc3cc(Cl)ccc3c2)n1

bioavailability [1]: 47%
Structure (SMILES): CN(C)C(=N)c1ccc(NC(=O)c2cc(C(F)(F)F)nn2-c2cc3ccccc3cc2F)c(F)c1

concentration (Canis familiaris): 2700 nM
bioavailability (in vivo [4]): 33%
Structure (SMILES): Nc1nccc2ccc(CN3CC[C@H](NS(=O)(=O)c4cc5ncccc5s4)C3=O)cc12

half-life (in vivo [3]): 0.6 h
bioavailability (in vivo [4]): 46%
Structure (SMILES): O=C1CN(S(=O)(=O)c2cc3ccc(Cl)cc3s2)CCN1Cc1cc2c[nH]ccc-2n1

clearance [7]: 4.17 mL/min/kg
bioavailability [1]: 60%
bioavailability [8]: 80%
bioavailability (in vivo [4]): 60%
Structure (SMILES): COC[C@@H](NC(=O)c1ccc(Cl)s1)C(=O)Nc1ccc(N2CCOCC2=O)c(C)c1

bioavailability [1]: 100%
Vd [9]: 33 L/kg
Structure (SMILES): CN(C)Cc1ccc(C(=O)Nc2ccc(Cl)cc2C(=O)Nc2ccc(Cl)cn2)cc1

bioavailability [1]: 52%
clearance [10]: 13 mL/min/kg
Vd [9]: 0.6 L/kg
half-life [6]: 1 h
Structure (SMILES): CN(C)Cc1nccn1-c1ccc(N2CC[C@H](NS(=O)(=O)/C=C/c3ccc(Cl)s3)C2=O)c(F)c1

half-life (in vivo [3]): 0.867 h
bioavailability (in vivo [4]): 97%
Structure (SMILES): O=C1CN(S(=O)(=O)/C=C/c2ccc(Cl)s2)CCN1Cc1cc2c[nH]ccc-2n1

half-life (in vivo [3]): 12.6 h
Structure (SMILES): O=C(Nc1ccc(-n2ccccc2=O)cn1)[C@H]1C[C@](O)(c2ccc(F)cc2F)CN1C(=O)Nc1ccc(Cl)cc1

clearance [7]: 12.4 mL/min/kg
half-life [11]: 1.5 h
Vd [12]: 1.49 L/kg
Structure (SMILES): CN1CCc2nc(C(=O)N[C@@H]3C[C@@H](C(=O)N(C)C)CC[C@@H]3NC(=O)c3cc4cc(Cl)ccc4[nH]3)sc2C1

bioavailability [8]: 46%
Structure (SMILES): Cc1ncc2n1C(=O)N(C1CCN(C(=O)CCS(=O)(=O)c3ccc4cc(Cl)ccc4c3)CC1)C2

bioavailability [1]: 50%
Structure (SMILES): Cc1cc2cc(N=C(NC#N)N[C@H]3CCCCN(CC(=O)N4CCCC4)C3=O)ccc2o1

dose excreted [13]: 47%
bioavailability [14]: 51%
half-life [15]: 8 h
Vd (in vivo [2]): 0.2 L/kg
dose excreted [16]: 25%
clearance (Rattus norvegicus): 4.33 mL/min/kg
Vd [17]: 0.17 L/kg
Vd [9]: 0.31 L/kg
bioavailability (in vivo [4]): > 50%
clearance (in vivo [5]): 0.333 mL/min/kg
Structure (SMILES): COc1ccc(-n2nc(C(N)=O)c3c2C(=O)N(c2ccc(N4CCCCC4=O)cc2)CC3)cc1 [APIXABAN]

clearance [18]: 120 mL/min
half-life [19]: > 20 h
Structure (SMILES): CC(=N)N1CC[C@H](Oc2ccc([C@H](Cc3ccc4ccc(C(=N)N)cc4c3)C(=O)O)cc2)C1 [DX-9065A]

bioavailability [8]: 50%
Structure (SMILES): CN1CCc2nc(C(=O)N[C@@H]3C[C@@H](C(=O)N(C)C)CC[C@@H]3NC(=O)C(=O)Nc3ccc(Cl)cn3)sc2C1 [EDOXABAN]

bioavailability [1]: 82%
Vd (in vivo [2]): 0.87 L/kg
bioavailability (in vivo [4]): 41%
clearance (in vivo [5]): 2.5 mL/min/kg
Structure (SMILES): CO[C@@H]1C[C@H](C(=O)Nc2ccc(-n3ccccc3=O)cc2F)N(C(=O)Nc2ccc(Cl)cc2)C1 [ERIBAXABAN]

clearance [7]: 11.8 mL/min/kg
bioavailability [8]: 52.5%
Vd [12]: 0.579 L/kg
Structure (SMILES): O=C([C@H](O)CS(=O)(=O)c1ccc2cc(Cl)ccc2c1)N1CCC(N2CCCNC2=O)CC1 [LETAXABAN]

bioavailability [1]: 25%
half-life (in vivo [3]): 7 h
bioavailability (in vivo [4]): 25%
half-life [6]: 7 h
Structure (SMILES): CN1CCC(N2CCN(C(=O)[C@H](NC(=O)c3ccc4cc[nH]c4c3)c3ccccc3)CC2)CC1 [LY-517717]

dose excreted [20]: 25%
dose excreted [21]: 52%
dose excreted [22]: 67%
Tmax [23]: 1.3 h
bioavailability [1]: 57%
Vd (in vivo [2]): 0.4 L/kg
half-life (in vivo [3]): 0.9 h
Vd [9]: 0.3 L/kg
bioavailability (in vivo [4]): 60%
half-life [6]: 1.2 h
clearance (in vivo [5]): 5 mL/min/kg
dose excreted [24]: 43%
Structure (SMILES): O=C(NC[C@H]1CN(c2ccc(N3CCOCC3=O)cc2)C(=O)O1)c1ccc(Cl)s1 [RIVAROXABAN]

bioavailability [8]: 20%
Structure (SMILES): CC(=N)N1CCC(Oc2ccc(N(Cc3ccc4ccc(C(=N)N)cc4c3)S(=O)(=O)CC(=O)O)cc2)CC1 [YM-60828]
